# Measured values reported in patent US5312919A, “Photooxidation products and derivatives thereof of merocyanine-540, their preparation and uses” (priority 1992, dated 1994).
# Where two headings read alike, the source gives them in different places.
# How the values were obtained:
# [1] = test system: BT-20 (breast, adenocarcinoma); test: Inhibition of cell proliferation, BT-20 (MTT assay); format: cell-based; settings: Homo sapiens, read-out: % inhibition of cell proliferation
# Source text: Preactivated MC 540 is abbreviated as pMC 540. […] 52: 831-38 (1990); and T. Mosmann, J. Immulog. Methods 65: 55-63 (1983). […]
# [2] = test system: MT-4 cells; test: Effect on viability of MT-4 cells; format: cell-based; settings: experimental conditions of Table 8
# Procedure: (§1) Cell free human immunodeficiency virus (HIV-1) was either left untreated or treated with indicated doses of Merocil or Merodantoin for one hour at 37° C. and added to MT-4 target cells. After 4 hour incubation at 37° C., the cells were washed three times and further incubated in drug free fresh growth medium (complete RPMI-1640) at 37° C. for 4 days. On day four, 50% of the culture supernatant was replaced with fresh growth medium to prevent cell death due to possible nutrient depletion. The viability of the cell was determined on day 11 by MTT assay. […] The viability of the MT-4 cells was not affected by Merocil or Merodantoin under the experimental conditions described above.
# [3] = test system: L1210 mouse leukemia cells; test: Combined effect on L1210 mouse leukemia cells (MTT assay); settings: MC = 12.5 μg/ml; MD = 25 μg/ml; MZ = 25 μg/ml; overnight
# Procedure: The biological activities of the photooxidation products of MC 540 were determined. Preactivated MC 540 is abbreviated as pMC 540. Assays of antitumor activities of the products were carried out according to published standard methods.
# Mouse leukemia L1210 cells (1 × 10^6 cells/ml) were treated wit
# different combinations of the indicated compounds (isolated from
# preactivated merocyanine 540). After overnight incubation the cell kill
# [4] = test system: C-33A (carcinoma cervix, human); test: Inhibition of cell proliferation, C-33A (MTT assay); format: cell-based; settings: read-out: % inhibition of cell proliferation
# Procedure: (§2) Preactivated MC 540 is abbreviated as pMC 540. […] 52: 831-38 (1990); and T. Mosmann, J. Immulog. Methods 65: 55-63 (1983).
# (§3) Each cell type (1×10^6 cells/ml; in triplicate) was treated with indicated concentrations of merocil or merodantoin. After overnight (20 hr.) or 5 day incubation periods, the cell viability was determined by MTT assay and calculated as a percentage of untreated controls. The toxicity in vehicle only (cremophor EL) controls was not detectable at highest dose tested.
# [5] = test system: human Burkitt lymphoma Daudi cells; test: Cytotoxic effects on human Burkitt lymphoma Daudi cells (MTT assay); format: cell-based
# Procedure: Human Burkitt Lymphoma Daudi cells (1×10^6 cells/ml) were treated with different concentrations of Merodantoin. After overnight incubation at 37° C., the tumor cells kill was determined by MTT assay.
# Human Burkitt Lymphoma Daudi cells (1×10^6 cells/ml) were treated with different concentrations of Merocil. After overnight incubation at 37° C., the tumor cells kill was determined by MTT assay.
# Each cell type (1×10^6 cells/ml; in triplicate) was treated with indicated concentrations of Merocil or Merodantoin. After overnight (20 hr.) or 5 day incubation periods, the cell viability was determined by MTT assay and calculated as a percentage of untreated controls.
# [6] = test system: certain tumor cells; test: Inhibition of proliferation of tumor cells (overall conclusion); format: cell-based
# Source text: as §2
# [7] = test system: 8226 (multiple myeloma); test: Inhibition of cell proliferation, 8226 (MTT assay); format: cell-based; settings: 24 h, read-out: % inhibition of cell proliferation
# Procedure: as §2
# (§4) Each cell type (1×10^6 cells/ml; in triplicate) was treated with indicated concentrations of merocil or merodantoin. […] The cytotoxicity in vehicle only (cremophor EL) controls was not detectable at highest dose tested.
# [8] = test system: U266B1 (myeloma); test: Inhibition of cell proliferation, U266B1 (MTT assay); format: cell-based; settings: 24 h, read-out: % inhibition of cell proliferation
# Procedure: as §2, §4
# [9] = test system: DU 145 (prostate, carcinoma, human); test: Inhibition of cell proliferation, DU 145 (MTT assay); format: cell-based; settings: read-out: % inhibition of cell proliferation
# Procedure: as §2, §3
# [10] = test system: MS 751 (cervix, carcinoma, human); test: Inhibition of cell proliferation, MS 751 (MTT assay); format: cell-based; settings: read-out: % inhibition of cell proliferation
# Procedure: as §2, §3
# [11] = test system: normal human peripheral blood mononuclear cells; test: Cytotoxicity on normal human peripheral blood mononuclear cells (trypan blue dye exclusion); format: cell-based; settings: doses of Table 1
# Procedure: (§5) Preactivated MC 540 is abbreviated as pMC 540.
# (§6) Merocil and Merodantoin were dissolved in cremophor EL whereas pMC 540 was prepared in 10% aqueous ethanol. […] Fresh human peripheral mononucleas cells (1×10^6 cells/ml) were treated with indicated concentration of compounds. After overnight incubation at 37° C., cell viability was determined by trypan blue dye exclusion method.
# [12] = as above; format: cell-based; settings: human, peripheral blood mononuclear cells, overnight, 37° C., read-out: % cell kill (mean ± S.E.M.)
# Procedure: as §5, §6
# [13] = test system: JEG-3 (choriocarcinoma, human); test: Inhibition of cell proliferation, JEG-3 (MTT assay); format: cell-based; settings: read-out: % inhibition of cell proliferation
# Procedure: as §2, §3
# [14] = test system: H.S. Sultan (multiple myeloma); test: Inhibition of cell proliferation, H.S. Sultan (MTT assay); format: cell-based; settings: 24 h, read-out: % inhibition of cell proliferation
# Procedure: as §2, §4
# [15] = test system: human immunodeficiency virus (HIV-1); test: Inactivation of cell free human immunodeficiency virus (viability of MT-4 target cells, MTT assay); format: cell-based
# Procedure: as §2, §1
# [16] = Homo sapiens, Daudi, read-out: % Cell Kill (means ± S.D.)
smiles,measurement,setting,value
"CCCCN1C(=O)C(O)(OC)C(=O)N(CCCC)C1=S [Merocil, N,N'-Dibutyl-4,5 dihydro-5-hydroxy-5-methoxy-4-oxo-2-thiouracil]",inhibition at 0.78 µg/mL,"[1]; BT-20, 48 h",3%
same,inhibition at 1.56 µg/mL,"[1]; BT-20, 48 h",0%
same,inhibition at 3.13 µg/mL,"[1]; BT-20, 48 h",2%
same,inhibition at 6.25 µg/mL,"[1]; BT-20, 48 h",0%
same,inhibition at 12.5 µg/mL,"[1]; BT-20, 48 h",11%
same,inhibition at 0.78 µg/mL,"[1]; BT-20, 96 h",11%
same,inhibition at 1.56 µg/mL,"[1]; BT-20, 96 h",22%
same,inhibition at 3.13 µg/mL,"[1]; BT-20, 96 h",41%
same,inhibition at 6.25 µg/mL,"[1]; BT-20, 96 h",20%
same,inhibition at 12.5 µg/mL,"[1]; BT-20, 96 h",8%
same,viability of the MT-4 cells,[2],not affected
same,% Cell Kill,[3],28%
same,inhibition at 0.78 µg/mL,[4]; 20 h,2%
same,inhibition at 1.56 µg/mL,[4]; 20 h,9%
same,inhibition at 3.13 µg/mL,[4]; 20 h,35%
same,inhibition at 6.25 µg/mL,[4]; 20 h,36%
same,inhibition at 12.5 µg/mL,[4]; 20 h,49%
same,inhibition at 0.78 µg/mL,[4]; 120 h,23%
same,inhibition at 1.56 µg/mL,[4]; 120 h,26%
same,inhibition at 3.13 µg/mL,[4]; 120 h,46%
same,inhibition at 6.25 µg/mL,[4]; 120 h,89%
same,inhibition at 12.5 µg/mL,[4]; 120 h,97%
same,growth inhibition of cultured Daudi lymphoma cells,[5]; 12.5 μg/ml,virtually complete growth inhibition
same,cytotoxicity at 0.78 µg/mL,[5]; [16],4.75 ± 3.2%
same,cytotoxicity at 1.56 µg/mL,[5]; [16],16.5 ± 9.45%
same,cytotoxicity at 3.13 µg/mL,[5]; [16],36.8 ± 16.1%
same,cytotoxicity at 6.25 µg/mL,[5]; [16],87.2 ± 9.9%
same,cytotoxicity at 12.5 µg/mL,[5]; [16],100%
same,inhibiting the proliferation of certain tumor cells,[6],effective
same,inhibition at 0.78 µg/mL,[7],17%
same,inhibition at 1.56 µg/mL,[7],24%
same,inhibition at 3.13 µg/mL,[7],26%
same,inhibition at 6.25 µg/mL,[7],25%
same,inhibition at 12.5 µg/mL,[7],55%
same,inhibition at 0.78 µg/mL,[8],3%
same,inhibition at 1.56 µg/mL,[8],6%
same,inhibition at 3.13 µg/mL,[8],21%
same,inhibition at 6.25 µg/mL,[8],8%
same,inhibition at 12.5 µg/mL,[8],8%
same,inhibition at 0.78 µg/mL,"[9]; DU-145, 20 h",0%
same,inhibition at 1.56 µg/mL,"[9]; DU-145, 20 h",0%
same,inhibition at 3.13 µg/mL,"[9]; DU-145, 20 h",0%
same,inhibition at 6.25 µg/mL,"[9]; DU-145, 20 h",5%
same,inhibition at 12.5 µg/mL,"[9]; DU-145, 20 h",3%
same,inhibition at 0.78 µg/mL,"[9]; DU-145, 120 h",26%
same,inhibition at 1.56 µg/mL,"[9]; DU-145, 120 h",33%
same,inhibition at 3.13 µg/mL,"[9]; DU-145, 120 h",71%
same,inhibition at 12.5 µg/mL,"[9]; DU-145, 120 h",93%
same,inhibition at 0.78 µg/mL,"[10]; MS751, 20 h",1%
same,inhibition at 1.56 µg/mL,"[10]; MS751, 20 h",7%
same,inhibition at 3.13 µg/mL,"[10]; MS751, 20 h",12%
same,inhibition at 6.25 µg/mL,"[10]; MS751, 20 h",20%
same,inhibition at 12.5 µg/mL,"[10]; MS751, 20 h",20%
same,inhibition at 0.78 µg/mL,"[10]; MS751, 120 h",10%
same,inhibition at 1.56 µg/mL,"[10]; MS751, 120 h",11%
same,inhibition at 3.13 µg/mL,"[10]; MS751, 120 h",12%
same,inhibition at 6.25 µg/mL,"[10]; MS751, 120 h",29%
same,inhibition at 12.5 µg/mL,"[10]; MS751, 120 h",89%
same,toxicity to normal human peripheral blood mononuclear cells,[11],relatively non-toxic
same,cytotoxicity,[12]; 0.78 μg/ml,2.67 ± 0.8%
same,cytotoxicity,[12]; 1.56 μg/ml,5 ± 0.67%
same,cytotoxicity,[12]; 3.13 μg/ml,4 ± 0.67%
same,cytotoxicity,[12]; 6.25 μg/ml,6%
same,cytotoxicity,[12]; 12.5 μg/ml,5 ± 0.71%
same,inhibition at 0.78 µg/mL,"[13]; JEG-3, 20 h",0%
same,inhibition at 1.56 µg/mL,"[13]; JEG-3, 20 h",3%
same,inhibition at 3.13 µg/mL,"[13]; JEG-3, 20 h",32%
same,inhibition at 6.25 µg/mL,"[13]; JEG-3, 20 h",68%
same,inhibition at 12.5 µg/mL,"[13]; JEG-3, 20 h",86%
same,inhibition at 0.78 µg/mL,"[13]; JEG-3, 120 h",8%
same,inhibition at 1.56 µg/mL,"[13]; JEG-3, 120 h",11%
same,inhibition at 3.13 µg/mL,"[13]; JEG-3, 120 h",11%
same,inhibition at 6.25 µg/mL,"[13]; JEG-3, 120 h",51%
same,inhibition at 12.5 µg/mL,"[13]; JEG-3, 120 h",86%
same,inhibition at 0.78 µg/mL,[14],23%
same,inhibition at 1.56 µg/mL,[14],28%
same,inhibition at 3.13 µg/mL,[14],24%
same,inhibition at 6.25 µg/mL,[14],63%
same,inhibition at 12.5 µg/mL,[14],68%
same,inactivation of cell free HIV,[15]; 75 μg/ml dose,virtually complete inactivation of the virus
same,inactivating human immunodeficiency virus (HIV-1),[15]; conclusion,effective
"CC1(O)Oc2ccccc2N1CCCS(=O)(=O)O (centres unmarked) [Meroxazole, 2-Hydroxy-2-methyl-3-[3'-sulfopropyl]-benzoxazolin]",% Cell Kill,[3],Zero
same,cytotoxicity at 25 µg/mL,"[5]; Homo sapiens, Daudi, 25 μg/ml, representative experiment, read-out: % Cell Kill",0%
same,cytotoxicity at 50 µg/mL,"[5]; Homo sapiens, Daudi, 50 μg/ml, representative experiment, read-out: % Cell Kill",0%
same,cytotoxicity at 75 µg/mL,"[5]; Homo sapiens, Daudi, 75 μg/ml, representative experiment, read-out: % Cell Kill",0%
same,cytotoxicity at 100 µg/mL,"[5]; Homo sapiens, Daudi, 100 μg/ml, representative experiment, read-out: % Cell Kill",0%
same,cytotoxicity at 125 µg/mL,"[5]; Homo sapiens, Daudi, 125 μg/ml, representative experiment, read-out: % Cell Kill",0%
same,cytotoxicity at 500 µg/mL,"[5]; Homo sapiens, Daudi, 500 μg/ml, representative experiment, read-out: % Cell Kill",32%
same,cytotoxicity to Daudi cells (conclusion),[5]; doses of Table 7,not cytotoxic
